Measurements published in patent US20250213519A1, “SYNERGY FOR INCREASING INSULIN SENSITIVITY” (Board of Supervisors of Louisiana State University and …, priority 2022, published 2025).
Values after ≈ are worked out from the molar mass of the structure shown. “Also recorded” adds a separate entry of the source. Read-outs that look alike come from different tables or passages of the source.

What was measured:
[1] = mice; cited from earlier work
[2] = system: human adipocytes; test: mRNA levels (qRT-PCR) in human adipocyte cultures treated for seven days; assay type: cell-based; details: 50 nM myricetin alone, 7 days
[3] = Estimated human Cmax of myricetin by conversion from rats; details: for Cmax: human, oral
[4] = oral administration, high fat diet; cited from earlier work
[5] = Myricetin toxicity in mice; assay type: in vivo; details: converted for human
[6] = system: human adipocytes; test: mRNA levels (qRT-PCR) in human adipocyte cultures treated for seven days; assay type: cell-based; details: for effects on gene expression of myricetin added to NRBC: added to nar ext + β-carotene, nanomolar myricetin
Source text: In adipocytes, CDK5 inhibitors reduce adipogenesis and increase genes for energy expenditure by altering PPARγ target gene selection. We measured the expression of the PPARα/γ direct target gene UCP1 after treating human adipocyte cultures with CDK5-inhibiting flavonols combined with naringenin for seven days.
Human adipose-derived stem cells from overweight and obese female donors were purchased from LaCell, LLC (New Orleans, Louisiana) or isolated from lipoaspirate waste donated post-surgery from women with obesity using methods as previously described (31). Cells were seeded, maintained until two days after becoming confluent, and differentiated into adipocytes in the presence of rosiglitazone and isobutylmethylxanthine for five days as previously described (25). […], dissolved in DMSO at 1000×, started 5 days after the differentiation period and lasted for seven days in adipocyte maintenance medium with heat inactivated serum, before RNA and protein were isolated from adipocyte cultures.
Quantitative reverse transcriptase and real-time PCR were conducted in one reaction with the gene-specific reverse PCR primer also priming the cDNA synthesis as previously described (25). Primer-probe sequences for UCP1, GLUT4, ATGL, adiponectin, PGC-1α and ribosomal RPL13A, used to adjust target gene values for total RNA in each sample, have been previously reported (25). […] Predesigned human primer and probe sets from Thermofisher Scientific are PM20D1 Hs00399438_m1; ANGPTL4 Hs00211522_m1; GDF11 Hs00195156_m1; S100B Hs00902901_m1.

[7] = biological target: GLP-1R (Homo sapiens, UniProt P43220); details: cited from earlier work
[8] = 25° C.; cited from earlier work
[9] = system: primary islets; details: up to 100 μm, 24 h; cited from earlier work
[10] = single dose injection; cited from earlier work
[11] = 0.12% myricetin in high fat and sucrose diet; cited from earlier work
[12] = Pharmacokinetics of myricetin in rats; assay type: in vivo; details: plasma, po, from Table 1 (rat), converted
[13] = biological target: CDK5 (Homo sapiens, UniProt Q00535); details: cited from earlier work
[14] = system: human adipocytes; test: Protein levels by Western blotting in human adipocytes treated for seven days; assay type: cell-based; details: for SIRT3 protein levels, NR combined with myricetin: 8 μM NR + 50 nM myricetin vs NR or myr alone
Source text: Since we saw an increase in SIRT3 mRNA and myricetin upregulates SIRT3 protein in adipocytes from mice, we analyzed levels of SIRT3 protein in human adipocytes treated for seven days with the same concentrations of compounds. Protein was isolated from adipocytes and analyzed on immunoblots probed with antibodies that specifically bind human SIRT3 or human β-actin. […] However, adding myr to NR+BC boosted SIRT3 protein by 37%.
Human adipose-derived stem cells from overweight and obese female donors were purchased from LaCell, LLC (New Orleans, Louisiana) or isolated from lipoaspirate waste donated post-surgery from women with obesity using methods as previously described (31). Cells were seeded, maintained until two days after becoming confluent, and differentiated into adipocytes in the presence of rosiglitazone and isobutylmethylxanthine for five days as previously described (25). Treatments of adipocytes with 8 μM NR and 2 μM carotenoid, dissolved in DMSO at 1000×, started 5 days after the differentiation period and lasted for seven days in adipocyte maintenance medium with heat inactivated serum, before RNA and protein were isolated from adipocyte cultures.
Whole cell protein was isolated from differentiated cell cultures after treatment for seven days, lysed with RIPA buffer containing protease and phosphatase inhibitors, and pushed through a 20-gauge needle four times to disrupt organelles. Fifty micrograms of total cell protein were loaded per lane and resolved in 7.5% SDS-PAGE gels, transferred to nitrocellulose membranes, and probed overnight at 4° C. with specific primary antibodies. Anti-rabbit or -mouse secondary antibodies conjugated to horseradish peroxidase were used for detection of target proteins. Image J was used to quantify protein bands on Western blots. To adjust for variations in total protein loaded in each lane, β-actin was used.

[15] = system: cytochrome P450 and drug efflux pumps like P-glycoprotein; details: enhances availability of co-administered tamoxifen and losartan in rats; cited from earlier work
[16] = system: rat islets; details: rat islets incubated in high glucose; cited from earlier work
[17] = cited from earlier work; for solubility in an acidic solution: acetic acid buffered

Chain of CDK5 (Q00535 whole entry, species assumed): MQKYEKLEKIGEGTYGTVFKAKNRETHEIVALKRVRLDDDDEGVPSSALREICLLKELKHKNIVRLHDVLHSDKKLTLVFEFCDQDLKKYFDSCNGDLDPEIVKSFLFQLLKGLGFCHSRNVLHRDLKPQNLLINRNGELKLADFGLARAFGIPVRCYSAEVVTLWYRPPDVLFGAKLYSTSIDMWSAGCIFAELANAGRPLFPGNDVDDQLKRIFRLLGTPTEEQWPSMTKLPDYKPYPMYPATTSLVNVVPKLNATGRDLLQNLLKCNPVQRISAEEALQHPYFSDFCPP
Chain of CDK5 (Q15078 whole entry partner, species assumed): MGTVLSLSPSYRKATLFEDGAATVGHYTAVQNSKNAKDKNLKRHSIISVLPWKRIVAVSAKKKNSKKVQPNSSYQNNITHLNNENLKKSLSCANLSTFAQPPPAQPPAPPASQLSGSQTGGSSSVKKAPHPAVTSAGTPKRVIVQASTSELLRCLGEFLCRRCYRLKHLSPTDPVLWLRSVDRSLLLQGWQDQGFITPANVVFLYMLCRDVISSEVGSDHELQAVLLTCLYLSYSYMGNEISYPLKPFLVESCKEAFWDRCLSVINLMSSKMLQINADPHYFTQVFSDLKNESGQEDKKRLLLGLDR
Chain of GLP-1R (P43220 24-463, species assumed): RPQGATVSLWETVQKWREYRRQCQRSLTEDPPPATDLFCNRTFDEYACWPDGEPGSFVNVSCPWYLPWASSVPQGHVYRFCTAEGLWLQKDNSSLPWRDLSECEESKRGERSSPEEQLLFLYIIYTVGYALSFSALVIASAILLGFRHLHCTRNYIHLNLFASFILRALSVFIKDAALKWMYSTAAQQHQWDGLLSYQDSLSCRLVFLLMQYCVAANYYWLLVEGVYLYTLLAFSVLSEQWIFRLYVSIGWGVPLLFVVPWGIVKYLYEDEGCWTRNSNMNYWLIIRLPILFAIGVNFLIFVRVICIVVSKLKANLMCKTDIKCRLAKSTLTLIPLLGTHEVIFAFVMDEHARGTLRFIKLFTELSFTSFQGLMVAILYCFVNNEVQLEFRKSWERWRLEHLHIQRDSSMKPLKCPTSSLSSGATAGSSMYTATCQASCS

## O=c1c(O)c(-c2cc(O)c(O)c(O)c2)oc2cc(O)cc(O)c12 [myricetin]
[1]
  Tox: 1000 mg/kg/day
[2]
  SIRT1 or SIRT3 mRNA levels: no effect
[3]; 564 mg dose, conversion from 50 mg/kg in rats
  Human Cmax: 39.4 µM
[3]; 10 mg
  Cmax: ~0.4 µM
[3]; 564 mg
  Cmax: ~2.5 µM
[4]
  fatty liver disease and circulating triglycerides: improved fatty liver disease and lowered circulating triglycerides
[5]
  Tox, human equivalent: 11 g
[6]; 2.5 μM flavonol + 8 μM naringenin extract, 7 days, vs naringenin alone (FIG. 1)
  UCP1 and GLUT4 mRNA, flavonol combined with naringenin: synergistically increased expression of UCP1 and GLUT4
[6]; 25, 50 and 100 nM tested with NRBC
  most active myricetin concentration with naringenin extract and β-carotene: 50 nM
[6]; added to 8 μM naringenin, 0.1 μM to 6 μM tested
  myricetin concentration with most potent upregulation of gene expression: 0.1 µM
[6]
  effects on gene expression of myricetin added to NRBC: further upregulates gene expression; also recorded: almost doubles; also recorded: approximately doubles
[6]; listed as Myricetin
  effects on gene expression of myricetin added to NRBC: enhances the effects on gene expression
[6]; human fat cells, myricetin with naringenin
  increase in UCP-1 and GLUT-4 with naringenin: many fold greater increase in UCP-1 and GLUT-4
[6]; low nanomolar concentrations, 7 days
  gene expression, myricetin alone: no effect at any concentration
[6]; myricetin 5 nM + 8 μM naringenin ext
  effects on gene expression combined with naringenin: slightly reduced
[6]; myricetin 50 nM and 25 nM + 8 μM naringenin ext
  effects on gene expression combined with naringenin: remained strong
[6]; myricetin added to naringenin alone or to naringenin and beta carotene
  upregulation of thermogenic gene expression and adiponectin: approximately doubles
[7]
  GLP-1R agonist activity: activity as a GLP-1R agonist at low micromolar concentrations
[8]
  stability half-life: 23 h
[9]
  viability of primary islets: no loss of viability
[10]
  blood glucose levels: maintained reduced blood glucose levels for eight hours
[11]
  adiposity, circulating glucose and insulin: reductions in adiposity, and circulating glucose and insulin
[12]; first value (50 mg/kg p.o.)
  Cmax: 5 µM
[12]; second value (100 mg/kg p.o.)
  Cmax: 8.7 µM
[13]
  CDK5 kinase activity inhibition EC50 (in words): low micromolar range
[13]; read-out: CDK5 inhibition EC50
  EC50: 71 µM
[14]
  SIRT3 protein levels, NR combined with myricetin: does not increase SIRT3 protein levels
[14]; listed as Myricetin
  SIRT3 protein levels, NR combined with myricetin: did not increase SIRT3 protein levels
[14]; 8 μM NR or 50 nM myricetin, 7 days
  SIRT3 protein levels, single agent: upregulate SIRT3 protein levels
[14]; myr added to NR+BC
  increase in SIRT3 protein: 37%
[14]; myr added to NRBC (summary)
  increase in SIRT3 mRNA and protein: two-fold
[15]
  inhibition of cytochrome P450 and efflux pumps: inhibits cytochrome P450 and drug efflux pumps like P-glycoprotein
[16]
  insulin release: stimulated insulin release
[17]; pH 1
  solubility in an acidic solution: 777 µg/mL (≈ 2440 µM)
[17]; pH 2
  solubility in an acidic solution: 576 µg/mL (≈ 1810 µM)
[17]; pH 3
  solubility in an acidic solution: 150 µg/mL (≈ 471 µM)
[17]; aqueous
  aqueous solubility: 17 µg/mL (≈ 53.4 µM)
